# Patent US8952024B2, “Herbicidal pyrimidone derivatives” (E I du Pont de Nemours and Company, priority 2009, dated 2015)
# Key:
# Format in all cases: in vivo
# [1] = system: barnyardgrass (Echinochloa crus-galli); assay: Test B flooded paddy test; conditions: for Plant response rating, Barnyardgrass: Flood (flooded paddy test), 13 to 15 days
# Procedure, shortened: (§1)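 Seedlings reaching 2 leaves are flooded 3 cm deep; test material is delivered to that water, which stays at the same depth. Plants remain in a greenhouse 13–15 days and are then scored by eye versus controls from 0 to 100.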
# [2] = system: ducksalad (Heteranthera limosa); assay: Test B flooded paddy test; conditions: for Plant response rating, Ducksalad: Flood (flooded paddy test), 13 to 15 days
# Procedure, shortened: as §1
# [3] = system: umbrella sedge (Cyperus difformis); assay: Test B flooded paddy test; conditions: for Plant response rating, Sedge, Umbrella: Flood (flooded paddy test), 13 to 15 days
# Procedure, shortened: as §1
# rice (Oryza sativa) = assay: Test B flooded paddy test; conditions: for Plant response rating, Rice: Flood (flooded paddy test), 13 to 15 days
# Procedure, shortened: as §1
# corn (Zea mays) = assay: Test A pre-/postemergence plant response
# Procedure, shortened: (§2)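 Each species was treated preemergence via directed soil spray and postemergence at the one- to two-leaf stage, with compounds formulated in a non-phytotoxic solvent plus surfactant. Visual injury relative to untreated controls was rated after about ten days on a 0–100 scale.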
# [4] = system: giant foxtail (Setaria faberii); assay: Test A pre-/postemergence plant response
# Procedure, shortened: as §2
# [5] = system: large crabgrass (Digitaria sanguinalis); assay: Test A pre-/postemergence plant response
# Procedure, shortened: as §2
# [6] = system: velvetleaf (Abutilon theophrasti); assay: Test A pre-/postemergence plant response
# Procedure, shortened: as §2
# [7] = system: morningglory (Ipomoea spp.); assay: Test A pre-/postemergence plant response
# Procedure, shortened: as §2
# [8] = system: barnyardgrass (Echinochloa crus-galli); assay: Test A pre-/postemergence plant response
# Procedure, shortened: as §2
# [9] = system: wheat (Triticum aestivum); assay: Test A pre-/postemergence plant response
# Procedure, shortened: as §2
# [10] = system: pigweed (Amaranthus retroflexus); assay: Test A pre-/postemergence plant response
# Procedure, shortened: as §2
# [11] = 250 g ai/ha, flooded paddy test, visual rating on 0 to 100 scale (0 no effect, 100 complete control) after 13 to 15 days
# [12] = 31 g ai/ha, scale of 0 to 100 where 0 is no effect and 100 is complete control
# [13] = 62 g ai/ha, scale 0 to 100, 0 is no effect, 100 is complete control
# [14] = 125 g ai/ha, scale 0 to 100, 0 is no effect, 100 is complete control
# [15] = Postemergence, 125 g ai/ha, visual injury, 0 to 100 scale (0 no effect, 100 complete control), approx. ten days
# [16] = Postemergence, 500 g ai/ha, 0 to 100 scale, 0 = no effect, 100 = complete control, approx. ten days
# [17] = Preemergence, 125 g ai/ha, 0 to 100 scale, 0 = no effect, 100 = complete control
# [18] = Preemergence, 500 g ai/ha, visual injury, 0 to 100 scale (0 no effect, 100 complete control), approx. ten days
# [19] = Postemergence, 125 g ai/ha, 0 to 100 scale where 0 is no effect and 100 is complete control
# [20] = Postemergence, 500 g ai/ha, visual injury, 0 to 100 scale (0 no effect, 100 complete control), approx. ten days
# [21] = Preemergence, 500 g ai/ha, 0 to 100 scale, 0 = no effect, 100 = complete control
compound,measurement,setting,value
"2-(3,5-difluorophenyl)-5-[(2-hydroxy-4-oxobicyclo[3.2.1]oct-2-en-3-yl)carbonyl]-3-(2-methoxyethyl)-4(3H)-pyrimidinone [Compound 243]","Plant response rating, Flood, Barnyardgrass",[1]; [11],50
same,"Plant response rating, Barnyardgrass",[1]; [12],0
same,"Plant response rating, Barnyardgrass",[1]; [13],0
same,"Plant response rating, Barnyardgrass",[1]; [14],0
same,"Plant response rating, Flood, Ducksalad",[2]; [11],75
same,"Plant response rating, Ducksalad",[2]; [12],0
same,"Plant response rating, Ducksalad",[2]; [13],30
same,"Plant response rating, Ducksalad",[2]; [14],60
same,"Plant response rating, Flood, Sedge, Umbrella",[3]; [11],75
same,"Plant response rating, Sedge, Umbrella",[3]; [12],0
same,"Plant response rating, Sedge, Umbrella",[3]; [13],30
same,"Plant response rating, Sedge, Umbrella",[3]; [14],70
same,"Plant response rating, Flood, Rice",rice (Oryza sativa); [11],0
same,"Plant response rating, Rice",rice (Oryza sativa); [12],0
same,"Plant response rating, Rice",rice (Oryza sativa); [13],0
same,"Plant response rating, Rice",rice (Oryza sativa); [14],0
same,Corn plant response rating,corn (Zea mays); [15],10
same,"Plant response rating, Corn",corn (Zea mays); [16],70
same,"Plant response rating, Corn",corn (Zea mays); [17],0
same,"Plant response rating, Corn",corn (Zea mays); [18],0
same,"Foxtail, Giant plant response rating",[4]; [15],80
same,"Plant response rating, Foxtail, Giant",[4]; [16],90
same,"Plant response rating, Foxtail, Giant",[4]; [17],40
same,"Plant response rating, Foxtail, Giant",[4]; [18],90
same,"Crabgrass, Large plant response rating",[5]; [15],70
same,"Plant response rating, Crabgrass, Large",[5]; [16],90
same,"Plant response rating, Crabgrass, Large",[5]; [17],90
same,"Plant response rating, Crabgrass, Large",[5]; [18],100
same,Velvetleaf plant response rating,[6]; [15],100
same,"Plant response rating, Velvetleaf",[6]; [16],100
same,"Plant response rating, Velvetleaf",[6]; [17],70
same,"Plant response rating, Velvetleaf",[6]; [18],100
same,Morningglory plant response rating,[7]; [15],80
same,"Plant response rating, Morningglory",[7]; [16],90
same,"Plant response rating, Morningglory",[7]; [17],20
same,"Plant response rating, Morningglory",[7]; [18],90
same,Barnyardgrass plant response rating,[8]; [15],80
same,"Plant response rating, Barnyardgrass",[8]; [16],100
same,"Plant response rating, Barnyardgrass",[8]; [17],0
same,"Plant response rating, Barnyardgrass",[8]; [18],100
same,Wheat plant response rating,[9]; [15],0
same,"Plant response rating, Wheat",[9]; [16],40
same,"Plant response rating, Wheat",[9]; [17],0
same,"Plant response rating, Wheat",[9]; [18],0
same,Pigweed plant response rating,[10]; [15],100
same,"Plant response rating, Pigweed",[10]; [16],100
same,"Plant response rating, Pigweed",[10]; [17],50
same,"Plant response rating, Pigweed",[10]; [18],100
"O=C1CCCC(O)=C1C(=O)c1cnc(-c2ccccc2)n(C2CC[S+]([O-])CC2)c1=O (mixture of isomers) [Compound 169, 5-[(2-hydroxy-6-oxo-1-cyclohexen-1-yl)carbonyl]-2-phenyl-3-(trans/cis-tetrahydro-1-oxido-2H-thiopyran-4-yl)-4(3H)-pyrimidinone]","Plant response rating, Corn",corn (Zea mays); [19],0
same,Corn plant response rating,corn (Zea mays); [20],30
same,"Plant response rating, Corn",corn (Zea mays); [17],0
same,"Plant response rating, Corn",corn (Zea mays); [21],20
same,"Plant response rating, Foxtail, Giant",[4]; [19],80
same,"Foxtail, Giant plant response rating",[4]; [20],100
same,"Plant response rating, Foxtail, Giant",[4]; [17],40
same,"Plant response rating, Foxtail, Giant",[4]; [21],50
same,"Plant response rating, Crabgrass, Large",[5]; [19],90
same,"Crabgrass, Large plant response rating",[5]; [20],100
same,"Plant response rating, Crabgrass, Large",[5]; [17],40
same,"Plant response rating, Crabgrass, Large",[5]; [21],40
same,"Plant response rating, Velvetleaf",[6]; [19],100
same,Velvetleaf plant response rating,[6]; [20],100
same,"Plant response rating, Velvetleaf",[6]; [17],20
same,"Plant response rating, Velvetleaf",[6]; [21],50
same,"Plant response rating, Morningglory",[7]; [19],100
same,Morningglory plant response rating,[7]; [20],100
same,"Plant response rating, Morningglory",[7]; [17],0
same,"Plant response rating, Morningglory",[7]; [21],20
same,"Plant response rating, Barnyardgrass",[8]; [19],90
same,Barnyardgrass plant response rating,[8]; [20],100
same,"Plant response rating, Barnyardgrass",[8]; [17],0
same,"Plant response rating, Barnyardgrass",[8]; [21],50
same,"Plant response rating, Wheat",[9]; [19],20
same,Wheat plant response rating,[9]; [20],20
same,"Plant response rating, Wheat",[9]; [17],0
same,"Plant response rating, Wheat",[9]; [21],0
same,"Plant response rating, Pigweed",[10]; [19],100
same,Pigweed plant response rating,[10]; [20],100
same,"Plant response rating, Pigweed",[10]; [17],0
same,"Plant response rating, Pigweed",[10]; [21],50
O=C1CCCC(O)=C1C(=O)c1cnc(C2CC2)n(C2CCCCC2)c1=O [Compound 160],"Plant response rating, Corn",corn (Zea mays); [19],20
same,Corn plant response rating,corn (Zea mays); [20],60
same,"Plant response rating, Corn",corn (Zea mays); [17],0
same,"Plant response rating, Corn",corn (Zea mays); [21],20
same,"Plant response rating, Foxtail, Giant",[4]; [19],70
same,"Foxtail, Giant plant response rating",[4]; [20],80
same,"Plant response rating, Foxtail, Giant",[4]; [17],20
same,"Plant response rating, Foxtail, Giant",[4]; [21],70
same,"Plant response rating, Crabgrass, Large",[5]; [19],90
same,"Crabgrass, Large plant response rating",[5]; [20],90
same,"Plant response rating, Crabgrass, Large",[5]; [17],80
same,"Plant response rating, Crabgrass, Large",[5]; [21],100
same,"Plant response rating, Velvetleaf",[6]; [19],100
same,Velvetleaf plant response rating,[6]; [20],100
same,"Plant response rating, Velvetleaf",[6]; [17],60
same,"Plant response rating, Velvetleaf",[6]; [21],30
same,"Plant response rating, Morningglory",[7]; [19],100
same,Morningglory plant response rating,[7]; [20],100
same,"Plant response rating, Morningglory",[7]; [17],70
same,"Plant response rating, Barnyardgrass",[8]; [19],90
same,Barnyardgrass plant response rating,[8]; [20],100
same,"Plant response rating, Barnyardgrass",[8]; [17],40
same,"Plant response rating, Barnyardgrass",[8]; [21],80
same,"Plant response rating, Wheat",[9]; [19],0
same,Wheat plant response rating,[9]; [20],50
same,"Plant response rating, Wheat",[9]; [17],0
same,"Plant response rating, Wheat",[9]; [21],20
same,"Plant response rating, Pigweed",[10]; [19],100
same,Pigweed plant response rating,[10]; [20],100
same,"Plant response rating, Pigweed",[10]; [17],80
same,"Plant response rating, Pigweed",[10]; [21],100
CCCCn1c(-c2ccccc2)ncc(C(=O)C2=C(O)C3CCC(C3)C2=O)c1=O (stereo not shown) [Compound 240],"Plant response rating, Corn",corn (Zea mays); [19],40
same,Corn plant response rating,corn (Zea mays); [20],80
same,"Plant response rating, Corn",corn (Zea mays); [17],0
same,"Plant response rating, Corn",corn (Zea mays); [21],40
same,"Plant response rating, Foxtail, Giant",[4]; [19],90
same,"Foxtail, Giant plant response rating",[4]; [20],100
same,"Plant response rating, Foxtail, Giant",[4]; [17],40
same,"Plant response rating, Foxtail, Giant",[4]; [21],80
same,"Plant response rating, Crabgrass, Large",[5]; [19],90
same,"Crabgrass, Large plant response rating",[5]; [20],100
same,"Plant response rating, Crabgrass, Large",[5]; [17],50
same,"Plant response rating, Crabgrass, Large",[5]; [21],100
same,"Plant response rating, Velvetleaf",[6]; [19],100
same,Velvetleaf plant response rating,[6]; [20],100
same,"Plant response rating, Velvetleaf",[6]; [17],60
same,"Plant response rating, Velvetleaf",[6]; [21],80
same,"Plant response rating, Morningglory",[7]; [19],100
same,Morningglory plant response rating,[7]; [20],100
same,"Plant response rating, Morningglory",[7]; [17],0
same,"Plant response rating, Morningglory",[7]; [21],0
same,"Plant response rating, Barnyardgrass",[8]; [19],100
same,Barnyardgrass plant response rating,[8]; [20],100
same,"Plant response rating, Barnyardgrass",[8]; [17],40
same,"Plant response rating, Wheat",[9]; [19],20
same,Wheat plant response rating,[9]; [20],40
same,"Plant response rating, Wheat",[9]; [17],0
same,"Plant response rating, Wheat",[9]; [21],40
same,"Plant response rating, Pigweed",[10]; [19],90
same,Pigweed plant response rating,[10]; [20],100
same,"Plant response rating, Pigweed",[10]; [17],20
same,"Plant response rating, Pigweed",[10]; [21],100
